Assays:
Type in all cases: biochemical
mushroom tyrosinase [1] = assay: Mushroom tyrosinase inhibition assay; details: L-DOPA substrate, Mean ± SEM
Description: The inhibition of mushroom tyrosinase (Sigma Chemical, U.S.A.) was performed in accordance with previously documented methodologies [[57–59]]. Each well of a 96-well microplate received 20 µl of mushroom tyrosinase (30 U/ml), 20 µl of the inhibitor solution, and 140 µl of phosphate buffer (20 mM, pH 6.8). After a 10 min preincubation at room temperature, 20 µl of L-DOPA (3,4-dihydroxyphenylalanine, Sigma Chemical, U.S.A.) at a concentration of 0.85 mM was added, and the test plate was incubated for an additional 20 min at 25°C. The absorbance of dopachrome was later quantified at 475 nm using a microplate reader (SpectraMax ABS, U.S.A.). […] Every experiment was performed three times. IC50 values were calculated by nonlinear regression using GraphPad Prism 5.0 (GraphPad, San Diego, CA U.S.A.).
The % Inhibition of tyrosinase was calculated as following:
Tyrosinase % Inhibition= (Blank−Sample)/B×100 = ( Equation 1 ).

carbonic anhydrase = carbonic anhydrase (Bos taurus, UniProt P00921); assay: Carbonic anhydrase inhibition assay (p-nitrophenyl acetate hydrolysis); details: bovine enzyme, p-nitrophenyl acetate substrate, Mean ± SEM
Description: The inhibition of carbonic anhydrase was assessed as previously outlined, with certain modifications [[60–62]]. The method employed involves the hydrolysis of p-nitrophenyl acetate by carbonic anhydrase, resulting in the formation of yellow p-nitrophenol, which was subsequently analyzed through spectrophotometry. The reaction mixture included 20 µl of inhibitor, 120 µl of 50 mM Tris-Sulfate buffer (pH 7.6 with 0.1 mM ZnCl2), and 20 µl of bovine enzyme (50 U) per well. The components were mixed and preincubated at 25°C for 10 min. A 6 mM stock solution of the substrate p-nitrophenyl acetate was prepared with less than 5% acetonitrile in buffer and utilized fresh for each experiment, with 40 µl added per well to attain a concentration of […] per well. The total reaction volume was adjusted to 200 µl. […] Acetazolamide served as the reference standard. Each concentration underwent three separate evaluations. IC50 values were determined through nonlinear regression analysis utilizing GraphPad Prism 5.0 (GraphPad, San Diego, CA, U.S.A.).
Inhibition(%)=(B−S)/B×100
Here, the B and S are the absorbances for the blank and samples.

[2] = target: calf intestinal alkaline phosphatase (CIAP) (Bos taurus, UniProt P19111); assay: Alkaline phosphatase inhibition assay; details: p-NPP substrate, Mean ± SEM
Description: Spectrophotometric analysis, as previously described in publications, can be used to evaluate the activity of calf intestinal alkaline phosphatase (CIAP). The reaction mixture, including 10 µl of the reagent and 50 mM Tris-HCl buffer (5 mM MgCl2, 0.1 mM ZnCl2, pH 9.5), is preincubated for 10 min following the addition of 5 µl of CIAP (0.025 U/ml). The test mixture was then incubated at 37°C for another half hour after 10 µl of a substrate (0.5 mM p-NPP, para nitrophenyl phosphate disodium salt) was added to initiate the reaction. The alteration in absorbance of released p-nitrophenolate was measured using a 96-well microplate reader (Thermo Scientific Multiskan GO, U.S.A.) at 405 nm. All tests were repeated three times. […] The inhibition activity was calculated according to the following equation:
Inhibition(%)=(Blank−Sample)/Blank×100
IC50 values were designed using 6–8 serial dilutions, and the data were analyzed by nonlinear regression using GraphPad Prism 5 (GraphPad, San Diego, CA, U.S.A.).

mushroom tyrosinase [3] = assay: Mushroom tyrosinase inhibition assay

Chain of calf intestinal alkaline phosphatase (CIAP) (P19111 20-533): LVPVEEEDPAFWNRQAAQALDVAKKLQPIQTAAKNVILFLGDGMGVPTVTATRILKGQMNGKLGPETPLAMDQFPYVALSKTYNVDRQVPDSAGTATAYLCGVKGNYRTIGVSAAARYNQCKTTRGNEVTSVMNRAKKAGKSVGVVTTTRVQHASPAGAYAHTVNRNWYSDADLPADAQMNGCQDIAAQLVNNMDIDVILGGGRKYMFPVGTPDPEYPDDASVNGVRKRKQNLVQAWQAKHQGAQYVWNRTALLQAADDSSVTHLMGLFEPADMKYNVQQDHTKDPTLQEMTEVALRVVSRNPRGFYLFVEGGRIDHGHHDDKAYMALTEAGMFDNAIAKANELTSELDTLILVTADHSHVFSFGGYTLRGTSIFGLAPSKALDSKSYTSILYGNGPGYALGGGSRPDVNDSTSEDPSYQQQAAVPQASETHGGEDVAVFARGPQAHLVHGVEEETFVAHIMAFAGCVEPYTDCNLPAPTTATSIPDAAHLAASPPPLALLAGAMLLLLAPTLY
Chain of carbonic anhydrase (P00921 whole entry): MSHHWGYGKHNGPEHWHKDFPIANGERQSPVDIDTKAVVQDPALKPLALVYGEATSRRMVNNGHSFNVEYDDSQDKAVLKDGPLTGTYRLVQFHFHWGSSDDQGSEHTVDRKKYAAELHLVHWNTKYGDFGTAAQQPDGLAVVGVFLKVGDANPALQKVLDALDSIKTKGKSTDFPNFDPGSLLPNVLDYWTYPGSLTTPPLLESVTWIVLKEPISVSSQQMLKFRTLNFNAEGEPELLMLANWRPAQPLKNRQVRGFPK

IC50 (mushroom tyrosinase [1]) [µM]	IC50 (carbonic anhydrase) [µM]	IC50 [2] [µM]	Type of tyrosinase inhibition (kinetic studies) (mushroom tyrosinase [3])	Structure (SMILES)
1.85 ± 0.886	1.08 ± 0.42	7.77		CCCCCCCC(=O)NC(=S)Nc1ccccc1-c1nc2ccccc2c2nc3ccccc3n12 [Compound 6e, N-((2-(Benzo [4, 5]imidazo[1,2 c]quinazolin-6-yl)phenyl)carbamothioyl)octanamide]
7.95 ± 0.63	10.9 ± 0.99	20.6		CCCC(=O)NC(=S)Nc1ccccc1-c1nc2ccccc2c2nc3ccccc3n12 [Compound 6a, N-((2-(Benzo [4, 5]imidazo[1,2 c]quinazolin-6-yl)phenyl)carbamothioyl)butyramide]
2.8 ± 0.85	7.42 ± 0.74	20.3		CCCCCC(=O)NC(=S)Nc1ccccc1-c1nc2ccccc2c2nc3ccccc3n12 [Compound 6c, N ((2-(Benzo [4, 5]imidazo[1,2 c]quinazolin-6-yl)phenyl)carbamothioyl)hexanamide]
0.832 ± 0.03	0.708 ± 0.02	2.81 ± 0.42	competitive inhibition	CCCCCCCCCC(=O)NC(=S)Nc1ccccc1-c1nc2ccccc2c2nc3ccccc3n12 [Compound 6g, N -((2-(Benzo[4,5]imidazo[1,2-c]quinazolin-6-yl)phenyl)carbamothioyl)decanamide]
4.88 ± 0.54	2.76 ± 0.56	10.7 ± 0.96		CCCCC(=O)NC(=S)Nc1ccccc1-c1nc2ccccc2c2nc3ccccc3n12 [Compound 6b, N -((2-(Benzo[4,5]imidazo[1,2-c]quinazolin-6-yl)phenyl)carbamothioyl)pentanamide]
2.05 ± 0.97	7.14 ± 0.95	7.02		CCCCCCCCC(=O)NC(=S)Nc1ccccc1-c1nc2ccccc2c2nc3ccccc3n12 [Compound 6f, N -((2-(Benzo[4,5]imidazo[1,2-c]quinazolin-6-yl)phenyl)carbamothioyl)nonanamide]
1.27 ± 0.17	2.33 ± 0.34	7.2 ± 0.63		CC(C)(C)C(=O)NC(=S)Nc1ccccc1-c1nc2ccccc2c2nc3ccccc3n12 [Compound 6h, N-((2-(Benzo [4, 5]imidazo[1,2 c]quinazolin-6-yl)phenyl)carbamothioyl)pivalamide]
0.921 ± 0.07	3.51 ± 0.63	16.6 ± 0.98		CCCCCCC(=O)NC(=S)Nc1ccccc1-c1nc2ccccc2c2nc3ccccc3n12 [Compound 6d, N-((2-(Benzo [4, 5]imidazo[1,2 c]quinazolin-6-yl)phenyl)carbamothioyl)heptanamide]

From paper PMC12863032, “Design, synthesis, and anticancer activity of novel isocryptolepine ‘aza’ type acyl thiourea derivatives via combined experimental and computational approach” (Bioscience Reports, 2026)
